Entries after “also recorded” stand apart in the source; their conditions may differ.

This note sets out measurements from US11420910B2, “Methods for low temperature fluorine-18 radiolabeling of biomolecules” (KATHOLIEKE UNIVERSITEIT LEUVEN, priority 2014, dated 2022).

Series [1] can be described thus: Stability test on the semi-automated [Al18F]-L3 batch at room temperature. The format is physicochemical. Conditions: incubation at room temperature for 2 hours. As to the method: To assess the efficiency of the labeling agent in a more realistic setting, the process for radiosynthesis and purification of [Al^18F]-L3 was performed semi-automatically. [^18F]fluoride was produced and trapped on a SepPak™ Light Accel plus QMA anion as described previously. The [^18F]F^− was eluted from the cartridge with an aqueous solution of sodium chloride 0.9% (0.2 mL) and added to 22.5 μl of 20 mM aluminum chloride (AlCl3) in sodium acetate buffer (0.1 M, pH 4). The solution was incubated at RT for 10 min to form {Al^18F}^2+. A solution of H3L3 (0.5 mL, 1.5 mM) was added and the reactor was heated at 40° C. for 12 min. After dilution with water (0.5 mL), the crude reaction mixture was injected onto a semi-preparative HPLC column (XBridge C18, 5 μm, 4.6 mm×150 mm, Waters) eluted with EtOH: sodium acetate 0.05M pH 5.5, 8:92 (v/v) at a flow rate of 1 mL/min. UV detection of the eluate was performed at 254 nm. Identification of the [Al^18F]-L3 complex was done by radio-LC-HRMS (Acquity UPLC BEH C18, 1.7 μm, 2.1 mm×150 mm, Waters. 0.6 mL/min A: H2O B: ACN, 0-2 min 5% B, 2 to 8 min 5% B to 95% B, 8-10 min 95% B, 10 to 12 min 95% B to 5% B).
H3L3 was labeled with {Al^18F}^2+ in a non-optimized yield of 74% (12 min 40° C., pH 4). The batch (4.63 GBq) was produced with a RCP higher than 98% in 35 min starting after elution of fluorine-18. […]

Series [2] can be described thus: Stability tests of Al18F-complexes in rat serum at 37° C., Example 26. The format is in vitro ADME. As to the method:
(§1) 400 μl of each purified [Al^18F]-complex solution was added to 1 mL of PBS and/or 1 mL of rat serum. […] Finally the supernatant was analysed using iTLC-SG.

Series [3] is described as follows: Biodistribution of Al18F-complexes and {Al18F}2+ in healthy male NMRI mice. In kind it is in vivo. The note with it: for uptake in blood / uptake in bone / uptake in intestines / uptake in kidneys / uptake in liver / uptake in urinary bladder: NMRI mice, tail vein. The protocol:
Quantification of radioactivity during biodistribution studies was performed using an automated gamma counter equipped with a 3-inch NaI(TI) well crystal coupled to a multichannel analyzer, mounted in a sample changer (Perkin Elmer 1480 Wizard 3q). Counts were corrected for background radiation, physical decay and counter dead time.
(§2) The biodistribution of the [Al^18F]-L3 complex and {Al^18F}^2+ was determined in healthy male Naval Medical Research Institute (NMRI) mice (body weight: 30-40 g) at 10 and 60 min post injection (p.i.) (n=4/time point). Mice were injected with the [Al^18F]-L3 complex (about 1 MBq) or {Al^18F}^2+ (5.55 MBq) via a tail vein under anesthesia (2.5% isoflurane in O2 at 1 L/min flow rate) and sacrificed by decapitation at above specified time points. Blood and major organs were collected in tared tubes and weighed. The radioactivity in blood, organs and other body parts was counted using an automated γ-counter. For the calculation of total radioactivity in blood, bone and muscle, masses were assumed to be, respectively, 7, 12 and 40% of the total body mass.^20, 21
Quantification of radioactivity during biodistribution studies was performed using an automated gamma counter equipped with a 3-inch Nai(TI) well crystal coupled to a multichannel analyzer, mounted in a sample changer (Perkin Elmer 1480 Wizard 3q). Counts were corrected for background radiation, physical decay and counter dead time.
as §2, with “[Al^18F]-L26” for “[Al^18F]-L3”, “(n=3/time point for 10 min p.i. and n=4/time point for 60 min p.i.).” for “(n=4/time point).”, “mass.^20,21” for “mass.^20, 21”

The nature of series [4]: Stability tests of Al18F-complexes in PBS (0.1 M, pH 7) at 37° C., Example 26. In kind it is physicochemical. The note with it: PBS 0.1 M pH 7, 37° C. As to the method: as §1
A short description of series [5]: Stability tests of Al18F-complexes in different buffers ranging from pH 2 to 8 (room temperature, iTLC-SG). The note with it: for RCP: after 60 min. In kind it is physicochemical. The protocol: 200 μl of the purified Al^18F-L3 solution was added to 1 mL of sodium phosphate buffer (0.1 M, pH 2), sodium phosphate buffer (0.1 M, pH 3), sodium acetate buffer (0.1 M, pH 4), sodium acetate buffer (0.1 M, pH 5), sodium acetate buffer (0.1 M, pH 6), PBS buffer (0.1 M, pH 7) or Tris-HCl buffer (0.1 M, pH 8). These mixtures were incubated at room temperature and analyzed by iTLC-SG at 30 and 60 min after the start of the incubation.
200 μl of the purified Al^18F-L26 solution was added to 1 mL of sodium phosphate buffer (0.1 M, pH 2), sodium phosphate buffer (0.1 M, pH 3), sodium acetate buffer (0.1 M, pH 4), sodium acetate buffer (0.1 M, pH 5), sodium acetate buffer (0.1 M, pH 6), PBS buffer (0.1 M, pH 7) or Tris-HCl buffer (0.1 M, pH 8). These mixtures were incubated at room temperature and analyzed by iTLC-SG at 30 and 60 min after the start of the incubation.

On to `O=C1CN(Cc2ccccc2)CCN2CC(=O)[O][Al-]([18F])([O]1)[O]c1ccccc1C2` (stereo not drawn) [Al^18F-L3], for which the “[Al18F]-L3 still intact” value in series [1] was “more than 95%”. Besides, in series [2], the “stability in rat serum (in words)” value is given as “good stability in rat serum; also recorded: stability comparable to that of the previously reported Al^18F-NODA”. The RCP in series [2] (240 min) is listed as 66%; in series [4] (120 min) it was 80%; in series [4] (240 min) it was 70%; in series [5] (sodium acetate buffer 0.1 M pH 4, room temperature) it was 75%; in series [5] (sodium phosphate buffer 0.1 M pH 2, room temperature), 58%; in series [5] (sodium phosphate buffer 0.1 M pH 3, room temperature), 68%. Moreover, the uptake in blood in series [3] (10 min p.i.) was determined as 1.1 % ID; in series [3] (60 min p.i.) it was 0.3 % ID. In addition, the figures for the uptake in bone in series [3] (10 min p.i.) and in series [3] (60 min p.i.) were 1.6 % ID and 2.5 % ID, respectively. Also, the figures for the uptake in intestines in series [3] (10 min p.i.) and in series [3] (60 min p.i.) were 25.17 % ID and 59.48 % ID, respectively. Besides, the uptake in kidneys in series [3] (10 min p.i.) worked out at 2.2 % ID; in series [3] (60 min p.i.), 1.0 % ID. For the same molecule, the uptake in liver came out at 47.83 % ID in series [3] (10 min p.i.) and 13.53 % ID in series [3] (60 min p.i.). For the same molecule, the “uptake in urinary bladder” value is given as 13.2 % ID in series [3] (10 min p.i.) and 17.8 % ID in series [3] (60 min p.i.). Also, the “route of clearance (in words)” value in series [3] (mice, 60 min p.i.) is on record as “hepatobiliary clearance”. The “in vivo stability judged from bone uptake (in words)” value in series [3] (mice, biodistribution) is on record as “high stability”. In series [4], the “stability in PBS (in words)” value is “comparable to that of Al^18F-NODA-benzyl up to 60 minutes; also recorded: stability comparable to that of the previously reported Al^18F-NODA”. For the same molecule, in series [5] (buffers pH 2 to 8, room temperature, 30 and 60 min), the “stability at different pH (in words)” value was “not stable at pH 2, pH 3 and pH 4; also recorded: stable for at least 60 min in the pH range from 5 to 8”.
